Laboratory results as given in ChEMBL document CHEMBL1909046, “DrugMatrix in vitro pharmacology data”.

Key:
[1] = DRUGMATRIX: ATPase, Na+/K+ enzyme inhibition (substrate: ATP); type: tissue-based, Sus scrofa, Heart; conditions: Not Active = under 50% inhibition at 10 µM
[2] = DRUGMATRIX: Calcium Channel Type L, Dihydropyridine radioligand binding (ligand: [3H] Nitrendipine); type: cell membranes, Rattus norvegicus, Wistar, Cerebral cortex, Membrane; conditions: Not Active = under 50% inhibition at 10 µM
[3] = molecular target: T1, Vasoactive intestinal polypeptide receptor 1 (Homo sapiens, UniProt P32241); type: cell membranes, Membrane; conditions: ht-29; also: in other assays of this panel Not Active means under 50% inhibition at 10 µM
T1 sequence (P32241 whole entry): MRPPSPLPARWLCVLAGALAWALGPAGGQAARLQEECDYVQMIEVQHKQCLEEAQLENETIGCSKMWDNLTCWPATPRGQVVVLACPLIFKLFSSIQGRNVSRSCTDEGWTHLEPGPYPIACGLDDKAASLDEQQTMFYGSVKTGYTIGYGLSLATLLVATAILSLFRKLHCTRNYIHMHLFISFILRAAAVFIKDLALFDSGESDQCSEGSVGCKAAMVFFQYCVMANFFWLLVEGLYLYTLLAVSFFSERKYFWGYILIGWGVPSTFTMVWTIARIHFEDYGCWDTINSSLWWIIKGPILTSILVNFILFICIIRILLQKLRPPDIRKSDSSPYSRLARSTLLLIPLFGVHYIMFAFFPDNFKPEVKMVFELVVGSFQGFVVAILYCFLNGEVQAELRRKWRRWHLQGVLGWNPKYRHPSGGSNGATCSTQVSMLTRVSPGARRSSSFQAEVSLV

Cannabinoid receptor 1 = Cannabinoid receptor 1 (Homo sapiens, UniProt P21554); type: cell membranes, Membrane; conditions: chem-1; also: in other assays of this panel Not Active means under 50% inhibition at 10 µM
[4] = molecular target: T2, C-C chemokine receptor type 4 (Homo sapiens, UniProt P51679); type: cell membranes, Membrane; conditions: chem-1; also: in other assays of this panel Not Active means under 50% inhibition at 10 µM
T2 sequence (P51679 whole entry): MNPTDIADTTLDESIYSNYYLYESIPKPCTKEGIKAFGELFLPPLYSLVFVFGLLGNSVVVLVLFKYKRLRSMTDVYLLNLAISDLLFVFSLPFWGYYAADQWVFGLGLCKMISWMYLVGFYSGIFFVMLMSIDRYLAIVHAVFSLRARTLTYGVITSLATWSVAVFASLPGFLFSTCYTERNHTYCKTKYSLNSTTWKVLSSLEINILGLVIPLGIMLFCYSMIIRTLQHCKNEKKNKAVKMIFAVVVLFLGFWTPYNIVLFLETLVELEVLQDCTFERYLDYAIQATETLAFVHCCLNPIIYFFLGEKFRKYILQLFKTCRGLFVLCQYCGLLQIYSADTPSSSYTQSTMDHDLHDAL

[5] = molecular target: Prostaglandin G/H synthase 1 (Homo sapiens, UniProt P23219); test: biochemical; type: tissue-based, Platelet; conditions: platelet;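 also: inhibition of COX-1 enzyme activity, with arachidonic acid supplied as substrate; in other assays of this panel Not Active means under 50% inhibition at 10 µM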
Endothelin-1 receptor = molecular target: T3, Endothelin-1 receptor (Homo sapiens, UniProt P25101); type: cell membranes, Membrane; conditions: cho-k1; also: in other assays of this panel Not Active means under 50% inhibition at 10 µM
T3 sequence (P25101 whole entry): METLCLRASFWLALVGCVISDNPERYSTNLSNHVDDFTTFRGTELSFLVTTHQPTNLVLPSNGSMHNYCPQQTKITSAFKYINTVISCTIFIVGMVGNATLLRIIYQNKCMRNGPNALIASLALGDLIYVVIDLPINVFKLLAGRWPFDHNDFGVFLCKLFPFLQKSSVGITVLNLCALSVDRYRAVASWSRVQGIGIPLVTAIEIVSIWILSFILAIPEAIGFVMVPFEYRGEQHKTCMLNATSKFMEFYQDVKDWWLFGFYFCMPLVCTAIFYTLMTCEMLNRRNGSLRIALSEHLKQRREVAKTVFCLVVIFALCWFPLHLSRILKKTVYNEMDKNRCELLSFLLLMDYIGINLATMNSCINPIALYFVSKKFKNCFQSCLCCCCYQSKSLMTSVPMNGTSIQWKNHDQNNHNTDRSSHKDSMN

[6] = molecular target: T4, Neuropeptide Y receptor type 1 (Homo sapiens, UniProt P25929); type: cell membranes, Membrane; conditions: sk-n-mc; also: in other assays of this panel Not Active means under 50% inhibition at 10 µM
T4 sequence (P25929 whole entry): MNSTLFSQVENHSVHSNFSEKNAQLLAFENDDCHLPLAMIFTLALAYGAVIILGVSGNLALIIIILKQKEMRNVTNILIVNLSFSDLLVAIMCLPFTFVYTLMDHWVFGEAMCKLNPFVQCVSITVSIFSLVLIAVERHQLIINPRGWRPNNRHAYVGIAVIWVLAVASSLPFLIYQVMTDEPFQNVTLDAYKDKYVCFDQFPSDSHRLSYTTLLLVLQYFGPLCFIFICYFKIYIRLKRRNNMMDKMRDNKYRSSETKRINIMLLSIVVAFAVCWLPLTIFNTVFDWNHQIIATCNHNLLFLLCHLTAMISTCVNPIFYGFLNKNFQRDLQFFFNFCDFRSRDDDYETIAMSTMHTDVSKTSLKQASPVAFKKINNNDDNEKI

Caspase-1 = molecular target: T5, Caspase-1 (Homo sapiens, UniProt P29466); parameters: species or system Escherichia coli
T5 sequence (P29466 whole entry): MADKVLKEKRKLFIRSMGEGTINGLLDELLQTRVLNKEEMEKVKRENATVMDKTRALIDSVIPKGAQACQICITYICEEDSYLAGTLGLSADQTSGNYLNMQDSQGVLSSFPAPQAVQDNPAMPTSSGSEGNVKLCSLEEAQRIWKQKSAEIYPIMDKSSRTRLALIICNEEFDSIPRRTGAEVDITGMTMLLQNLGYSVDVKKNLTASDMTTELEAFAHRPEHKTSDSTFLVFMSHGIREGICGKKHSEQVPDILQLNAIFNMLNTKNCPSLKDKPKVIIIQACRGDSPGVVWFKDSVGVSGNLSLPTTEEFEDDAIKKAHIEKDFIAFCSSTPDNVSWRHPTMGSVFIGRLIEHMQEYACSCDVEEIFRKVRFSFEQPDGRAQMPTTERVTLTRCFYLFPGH

Adenosine receptor A1 = molecular target: T6, Adenosine receptor A1 (Homo sapiens, UniProt P30542); type: cell membranes, CHO, Membrane; conditions: cho
T6 sequence (P30542 whole entry): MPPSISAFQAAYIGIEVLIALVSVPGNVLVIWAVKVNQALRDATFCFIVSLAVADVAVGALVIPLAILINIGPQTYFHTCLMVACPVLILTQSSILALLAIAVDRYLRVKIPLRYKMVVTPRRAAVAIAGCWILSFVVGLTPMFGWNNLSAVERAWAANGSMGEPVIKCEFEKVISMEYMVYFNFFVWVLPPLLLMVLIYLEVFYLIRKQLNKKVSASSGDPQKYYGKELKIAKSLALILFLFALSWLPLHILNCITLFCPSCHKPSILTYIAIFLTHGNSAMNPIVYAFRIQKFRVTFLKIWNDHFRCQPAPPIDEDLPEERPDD

Prostaglandin G/H synthase 1, sequence (P23219 whole entry): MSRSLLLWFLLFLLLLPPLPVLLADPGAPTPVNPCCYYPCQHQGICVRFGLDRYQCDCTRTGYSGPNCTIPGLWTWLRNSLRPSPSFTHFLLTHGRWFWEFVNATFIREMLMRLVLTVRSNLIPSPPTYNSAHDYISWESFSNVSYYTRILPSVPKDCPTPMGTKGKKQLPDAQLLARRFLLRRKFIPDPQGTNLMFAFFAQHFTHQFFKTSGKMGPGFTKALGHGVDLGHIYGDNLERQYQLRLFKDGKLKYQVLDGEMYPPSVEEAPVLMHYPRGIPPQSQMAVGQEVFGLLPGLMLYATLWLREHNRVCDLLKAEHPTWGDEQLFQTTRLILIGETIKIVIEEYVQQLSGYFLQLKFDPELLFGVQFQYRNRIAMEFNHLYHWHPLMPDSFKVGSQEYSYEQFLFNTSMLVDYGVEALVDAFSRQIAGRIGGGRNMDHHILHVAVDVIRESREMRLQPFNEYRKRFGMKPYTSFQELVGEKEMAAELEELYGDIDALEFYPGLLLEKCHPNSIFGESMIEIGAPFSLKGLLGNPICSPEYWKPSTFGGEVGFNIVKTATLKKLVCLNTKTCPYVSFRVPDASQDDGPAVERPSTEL
Cannabinoid receptor 1, sequence (P21554 whole entry): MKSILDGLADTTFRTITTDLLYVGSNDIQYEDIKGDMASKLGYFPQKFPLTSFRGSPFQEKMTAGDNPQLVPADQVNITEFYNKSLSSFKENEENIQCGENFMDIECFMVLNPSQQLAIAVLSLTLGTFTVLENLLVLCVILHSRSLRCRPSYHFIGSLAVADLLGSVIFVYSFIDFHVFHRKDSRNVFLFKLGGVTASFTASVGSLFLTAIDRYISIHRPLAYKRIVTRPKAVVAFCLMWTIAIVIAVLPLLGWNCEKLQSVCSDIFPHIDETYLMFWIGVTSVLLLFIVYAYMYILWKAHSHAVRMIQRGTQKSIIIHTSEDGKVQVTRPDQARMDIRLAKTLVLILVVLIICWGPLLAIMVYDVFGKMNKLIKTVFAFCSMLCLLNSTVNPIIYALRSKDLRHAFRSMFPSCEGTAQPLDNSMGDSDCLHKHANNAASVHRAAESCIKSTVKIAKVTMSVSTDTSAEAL

NCCCC[C@H](N[C@@H](CCc1ccccc1)C(=O)O)C(=O)N1CCC[C@H]1C(=O)O [LISINOPRIL ANHYDROUS]
Not Active: IC50 [1] | Ki [1] | IC50 [2] | Ki [2] | IC50 [3] | IC50 (Cannabinoid receptor 1) | IC50 [4] | IC50 [5] | IC50 (Endothelin-1 receptor) | IC50 [6] | IC50 (Caspase-1) | IC50 (Adenosine receptor A1)

CN1[C@@H]2CC[C@H]1C[C@@H](OC(=O)c1c[nH]c3ccccc13)C2 [TROPISETRON]
Not Active: IC50 [1] | Ki [1] | IC50 [2] | Ki [2] | IC50 [3] | IC50 (Cannabinoid receptor 1) | IC50 [4] | IC50 [5] | IC50 (Endothelin-1 receptor) | IC50 [6] | IC50 (Caspase-1) | IC50 (Adenosine receptor A1)

CC(=O)[C@H]1CC[C@H]2[C@@H]3CCC4=CC(=O)CC[C@]4(C)[C@H]3CC[C@]12C [PROGESTERONE]
Not Active: IC50 [1] | Ki [1] | IC50 [2] | Ki [2] | IC50 [3] | IC50 (Cannabinoid receptor 1) | IC50 [4] | IC50 [5] | IC50 (Endothelin-1 receptor) | IC50 [6] | IC50 (Caspase-1) | IC50 (Adenosine receptor A1)

COc1cccc(C2(O)CCCCC2CN(C)C)c1 (stereo not given) [TRAMADOL]
Not Active: IC50 [3] | IC50 (Cannabinoid receptor 1) | IC50 [4] | IC50 [5] | IC50 (Endothelin-1 receptor) | IC50 [6] | IC50 (Caspase-1) | IC50 (Adenosine receptor A1)

C[C@](N)(Cc1ccc(O)cc1)C(=O)O [METYROSINE]
Not Active: IC50 [1] | Ki [1] | IC50 [2] | Ki [2] | IC50 [3] | IC50 (Cannabinoid receptor 1) | IC50 [4] | IC50 [5] | IC50 (Endothelin-1 receptor) | IC50 [6] | IC50 (Caspase-1) | IC50 (Adenosine receptor A1)

CC1(C)[C@H]2CC[C@]1(C)C(=O)C2 [(-)-CAMPHOR]
Not Active: IC50 [1] | Ki [1] | IC50 [2] | Ki [2] | IC50 [3] | IC50 (Cannabinoid receptor 1) | IC50 [4] | IC50 [5] | IC50 (Endothelin-1 receptor) | IC50 [6] | IC50 (Caspase-1) | IC50 (Adenosine receptor A1)

C=CC[C@@H]1/C=C(\C)C[C@H](C)C[C@H](OC)[C@H]2O[C@@](O)(C(=O)C(=O)N3CCCC[C@H]3C(=O)O[C@H](/C(C)=C/[C@@H]3CC[C@@H](O)[C@H](OC)C3)[C@H](C)[C@@H](O)CC1=O)[C@H](C)C[C@@H]2OC [TACROLIMUS ANHYDROUS]
Not Active: IC50 [1] | Ki [1] | IC50 [2] | Ki [2] | IC50 [3] | IC50 (Cannabinoid receptor 1) | IC50 [4] | IC50 [5] | IC50 (Endothelin-1 receptor) | IC50 [6] | IC50 (Caspase-1) | IC50 (Adenosine receptor A1)

CN(C)CCCN1c2ccccc2CCc2ccc(Cl)cc21 [CLOMIPRAMINE]
Not Active: IC50 [3] | IC50 (Cannabinoid receptor 1) | IC50 [4] | IC50 [5] | IC50 (Endothelin-1 receptor) | IC50 [6] | IC50 (Caspase-1) | IC50 (Adenosine receptor A1)

CC(C)(O)c1ccccc1CC[C@@H](SCC1(CC(=O)O)CC1)c1cccc(/C=C/c2ccc3ccc(Cl)cc3n2)c1 [MONTELUKAST]
Not Active: IC50 [3] | IC50 (Cannabinoid receptor 1) | IC50 [4] | IC50 [5] | IC50 (Endothelin-1 receptor) | IC50 [6] | IC50 (Caspase-1) | IC50 (Adenosine receptor A1)

Clc1ccccc1C(c1ccccc1)(c1ccccc1)n1ccnc1 [CLOTRIMAZOLE]
Not Active: IC50 [3] | IC50 (Cannabinoid receptor 1) | IC50 [4] | IC50 [5] | IC50 (Endothelin-1 receptor) | IC50 [6] | IC50 (Caspase-1)

CSc1ccc2c(c1)N(CCC1CCCCN1C)c1ccccc1S2 (stereo not given) [THIORIDAZINE]
Not Active: IC50 [3] | IC50 (Cannabinoid receptor 1) | IC50 [4] | IC50 [5] | IC50 (Endothelin-1 receptor) | IC50 [6] | IC50 (Caspase-1) | IC50 (Adenosine receptor A1)

COc1ccc(CCN2CCC(Nc3nc4ccccc4n3Cc3ccc(F)cc3)CC2)cc1 [ASTEMIZOLE]
Not Active: IC50 [3] | IC50 (Cannabinoid receptor 1) | IC50 [4] | IC50 [5] | IC50 (Endothelin-1 receptor) | IC50 [6] | IC50 (Caspase-1) | IC50 (Adenosine receptor A1)

O=C(CCCN1CCC(O)(c2ccc(Cl)cc2)CC1)c1ccc(F)cc1 [HALOPERIDOL]
Not Active: IC50 [3] | IC50 (Cannabinoid receptor 1) | IC50 [4] | IC50 [5] | IC50 (Endothelin-1 receptor) | IC50 [6] | IC50 (Caspase-1) | IC50 (Adenosine receptor A1)

CN1CCN2c3ccccc3Cc3ccccc3C2C1 (stereo not given) [MIANSERIN]
Not Active: IC50 [3] | IC50 (Cannabinoid receptor 1) | IC50 [4] | IC50 [5] | IC50 (Endothelin-1 receptor) | IC50 [6] | IC50 (Caspase-1) | IC50 (Adenosine receptor A1)
